This note sets out measurements from ChEMBL document CHEMBL4219209, “Design, synthesis and biological evaluation of novel tetrahydroisoquinoline derivatives as P-glycoprotein-mediated multidrug resistance inhibitors” (Bioorg Med Chem, 2018).

The subject of assay [1] is K562. As to the kind of experiment: Cytotoxicity against human K562 cells assessed as reduction in cell viability after 48 hrs by MTT assay. The format is cell-based. As to conditions: K562, 48 h. (In general: Formazan colour is commonly taken as a measure of viable cells.)
Assay [2] concerns K562/A02. As to the kind of experiment: Cytotoxicity against human K562/A02 cells overexpressing P-gp assessed as reduction in cell viability after 48 hrs by MTT assay. The format is ADME, cell-based. Conditions: K562/A02, 48 h.
The species entered for assay [3] is Homo sapiens. Description: Inhibition of P-gp in human K562/A02 cells assessed as potentiation of adriamycin-induced cytotoxicity by measuring fold reduction in adriamycin IC50 at 5 uM after 48 hrs by MTT assay relative to adriamycin alone. The format is cell-based.
Assay [4] is filed under the species Homo sapiens. As to the kind of experiment: Inhibition of P-gp in human K562/A02 cells assessed as potentiation of adriamycin-induced cytotoxicity by measuring fold reduction in adriamycin IC50 at 2.5 uM after 48 hrs by MTT assay relative to adriamycin alone. The format is cell-based.
The species entered for assay [5] is Homo sapiens. Description: Inhibition of P-gp in human K562/A02 cells assessed as potentiation of adriamycin-induced cytotoxicity by measuring fold reduction in adriamycin IC50 at 1 uM after 48 hrs by MTT assay relative to adriamycin alone. It is filed as cell-based.
The species entered for assay [6] is Homo sapiens. Description: Inhibition of P-gp in human K562/A02 cells assessed as potentiation of adriamycin-induced cytotoxicity by measuring fold reduction in adriamycin IC50 at 0.5 uM after 48 hrs by MTT assay relative to adriamycin alone. It is filed as cell-based.
The species named for assay [7] is Homo sapiens. As to the kind of experiment: Inhibition of P-gp in human K562/A02 cells assessed as potentiation of adriamycin-induced cytotoxicity by measuring fold reduction in adriamycin IC50 at 0.25 uM after 48 hrs by MTT assay relative to adriamycin alone. The format is cell-based.
The species entered for assay [8] is Homo sapiens. Description: Inhibition of P-gp in human K562/A02 cells assessed as potentiation of adriamycin-induced cytotoxicity by measuring fold reduction in adriamycin IC50 at 0.1 uM after 48 hrs by MTT assay relative to adriamycin alone. The format is cell-based.
The species named for assay [9] is Homo sapiens. As to the kind of experiment: Inhibition of P-gp in human K562/A02 cells assessed as potentiation of adriamycin-induced cytotoxicity by measuring fold reduction in adriamycin IC50 at 0.05 uM after 48 hrs by MTT assay relative to adriamycin alone. The format is cell-based.
For assay [10], the species on record is Homo sapiens. Description: Inhibition of P-gp in human K562/A02 cells assessed as potentiation of adriamycin-induced cytotoxicity by measuring fold reduction in adriamycin IC50 at 0.025 uM after 48 hrs by MTT assay relative to adriamycin alone. It is filed as cell-based.
Assay [11] in a line: (§1) Inhibition of P-gp in human K562/A02 cells assessed as potentiation of adriamycin-induced cytotoxicity after 48 hrs by MTT assay. It is filed as cell-based. Conditions: K562/A02, 48 h.
The species entered for assay [12] is Homo sapiens. Described as §1. The format is cell-based.
Assay [13] is filed under the species Homo sapiens. As to the kind of experiment: Inhibition of P-gp in human K562/A02 cells assessed as potentiation of adriamycin-induced cytotoxicity by measuring fold reduction in adriamycin IC50 at 5 uM preincubated for 24 hrs followed by compound wash out and subsequent addition of adriamycin measured after 48 hrs by MTT assay relative to adriamycin alone. It is filed as cell-based.

The species entered for assay [14] is Homo sapiens. Description: Inhibition of P-gp in human K562/A02 cells assessed as potentiation of adriamycin-induced cytotoxicity by measuring fold reduction in adriamycin IC50 at 5 uM preincubated for 24 hrs followed by compound wash out and subsequent addition of adriamycin after 6 hrs measured after 48 hrs by MTT assay relative to adriamycin alone. It is filed as cell-based.

Assay [15] is filed under the species Homo sapiens. As to the kind of experiment: Inhibition of P-gp in human K562/A02 cells assessed as potentiation of adriamycin-induced cytotoxicity by measuring fold reduction in adriamycin IC50 at 5 uM preincubated for 24 hrs followed by compound wash out and subsequent addition of adriamycin after 12 hrs measured after 48 hrs by MTT assay relative to adriamycin alone. The format is cell-based.

Assay [16] is filed under the species Homo sapiens. As to the kind of experiment: Inhibition of P-gp in human K562/A02 cells assessed as potentiation of adriamycin-induced cytotoxicity by measuring fold reduction in adriamycin IC50 at 5 uM preincubated for 24 hrs followed by compound wash out and subsequent addition of adriamycin after 24 hrs measured after 48 hrs by MTT assay relative to adriamycin alone. The format is cell-based.

The species named for assay [17] is Homo sapiens. Description: Inhibition of P-gp in human K562/A02 cells assessed as potentiation of adriamycin-induced cytotoxicity by measuring fold reduction in adriamycin IC50 at 5 uM preincubated for 24 hrs followed by adriamycin addition measured after 48 hrs by MTT assay relative to adriamycin alone. It is filed as cell-based.
The subject of assay [18] is K562/A02. Description: Inhibition of P-gp in human K562/A02 cells assessed as increase in adriamycin accumulation after 2.5 hrs by flow cytometry method. It is filed as cell-based. In general terms: Flow cytometry measures light scatter and fluorescence of single cells or particles in a stream.
The subject of assay [19] is K562. As to the kind of experiment: Inhibition of P-gp in human K562 cells assessed as increase in Rh123 accumulation at 5 uM after 2.5 hrs by flow cytometry method. It is filed as cell-based.
The test system of assay [20] is K562. As to the kind of experiment: Inhibition of P-gp in human K562 cells assessed as Rh123 efflux at 5 uM after 90 mins by fluorospectro photometric analysis (reference value: >70%). The format is cell-based. Further details: scale not given: the % may be the effect or the level left.
For assay [21], the system named is K562/A02. As to conditions: Homo sapiens, 5 uM.
Description: Inhibition of P-gp in human K562/A02 cells assessed as increase in adriamycin accumulation at 5 uM after 2.5 hrs by flow cytometry method

Structures can show the parent of a compound that is named as a salt. The source made the active and inactive calls. The rule behind the calls is not given here.

The term IC50 denotes the midpoint of a concentration-inhibition curve. A word on the EC50: it is the concentration needed to bring the measured effect to its halfway point.

Regarding `CCCCc1ccc(NC(=O)c2ccccc2NCc2cn(CCN3CCc4cc(OC)c(OC)cc4C3)nn2)cc1`, the concentration for half-maximal inhibition (IC50) is 75.7 µM in assay [1] and greater than 100 µM in [2] (read-out: IC50). Also, the Ratio IC50 in [3] was found to be 15.5.

With `COc1cc2c(cc1OC)CN(CCn1cc(CNc3ccccc3C(=O)Nc3ccc(OC(F)(F)F)cc3)nn1)CC2`, the half-inhibitory concentration (IC50) in [1] is 90.2 µM; in assay [2] (read-out: IC50), greater than 100 µM. For the same compound, the Ratio IC50 in [3] is 21.4.

Regarding `COc1cc2c(cc1OC)CN(CCn1cc(CNc3ccccc3C(=O)Nc3ccc(F)cc3)nn1)CC2`, the half-maximal inhibitory concentration (IC50) is 61 µM in assay [1] and greater than 100 µM in assay [2] (read-out: IC50). Further, the Ratio IC50 in assay [3] was 3.7.

As to `COc1cc2c(cc1OC)CN(CCn1cc(CNc3ccccc3C(=O)Nc3ccc(C(C)(C)C)cc3)nn1)CC2`, the IC50 is 45.4 µM in assay [1] and greater than 100 µM in assay [2] (read-out: IC50). The Ratio IC50 is 13.1 in assay [4]; 34.2 to 39 in assay [3]; 7.3 in assay [5]; 3.8 in assay [6]; 2.3 in [7]; 1.3 in assay [8]. Moreover, the Ratio IC50 in assay [9] turned out to be 1.2; in [10], 1.2; in assay [13] it was 11.6; in assay [14] it was 8.1; in assay [15] it was 5; in assay [16], 3. Further, the Ratio IC50 in [17] turned out to be 40.7. Also, the EC50 in [11] worked out at 253 nM. In addition, the inhibition entry in assay [12] and in assay [18] was “Dose-dependent effect” throughout. Also, the inhibition entry in assay [19] is “Active”. For the same compound, in assay [20], the Activity was less than 40%.

Take `COc1cc2c(cc1OC)CN(CCn1cc(CNc3ccccc3C(=O)NCc3ccccc3)nn1)CC2`: the IC50 in assay [1] is 49.6 µM; in assay [2] (read-out: IC50) it was greater than 100 µM. In addition, in assay [3], the Ratio IC50 is 4.5.

For the compound `COc1cc2c(cc1OC)CN(CCn1cc(CNc3ccccc3C(=O)Nc3ccc([N+](=O)[O-])cc3)nn1)CC2`, the IC50 in assay [1] is 43.8 µM; in assay [2] (read-out: IC50), greater than 100 µM. Besides, in [3], the Ratio IC50 stood at 2.6.

Take `COc1cc2c(cc1OC)CN(CCn1cc(CNc3ccccc3C(=O)Nc3ccc(Cl)cc3)nn1)CC2`: the 50% inhibitory concentration (IC50) in [1] was 43.4 µM; in assay [2] (read-out: IC50), greater than 100 µM. Moreover, the Ratio IC50 in assay [3] worked out at 2.6.

Consider `COc1ccc(CCNC(=O)c2ccccc2NCc2cn(CCN3CCc4cc(OC)c(OC)cc4C3)nn2)cc1OC`, for which the half-inhibitory concentration (IC50) in assay [1] is 61.1 µM; in [2] (read-out: IC50), greater than 100 µM. The Ratio IC50 in assay [3] was found to be 1.2.

With `COc1cc2c(cc1OC)CN(CCn1cc(CNc3ccccc3C(=O)NC3CCOCC3)nn1)CC2`, the half-maximal inhibitory concentration (IC50) in assay [1] was 59.2 µM; in assay [2] (read-out: IC50), greater than 100 µM. The Ratio IC50 in assay [3] is 8.2.

Regarding `COc1ccc(NC(=O)c2ccccc2NCc2cn(CCN3CCc4cc(OC)c(OC)cc4C3)nn2)cc1`, the IC50 in assay [1] is 58.4 µM; in [2] (read-out: IC50), greater than 100 µM.

For the compound `COc1cc2c(cc1OC)CN(CCn1cc(CNc3ccccc3C(=O)NCC(C)C)nn1)CC2`, the IC50 is 61.5 µM in assay [1] and greater than 100 µM in assay [2] (read-out: IC50). In assay [3], the Ratio IC50 was 1.7.

Turning to `COc1cc2c(cc1OC)CN(CCn1cc(CNc3ccccc3C(=O)Nc3ccc(F)c(F)c3)nn1)CC2`, the IC50 was 87.9 µM in [1] and greater than 100 µM in assay [2] (read-out: IC50). In addition, the Ratio IC50 in [3] was 3.7.

`COc1cc2c(cc1OC)CN(CCn1cc(CNc3ccccc3C(=O)NCCc3ccccc3)nn1)CC2`: the IC50 in [1] is 42.2 µM; in assay [2] (read-out: IC50), greater than 100 µM. Also, the Ratio IC50 in [3] came to 4.3.

For `COc1cc2c(cc1OC)CN(CCn1cc(CNc3ccccc3C(=O)Nc3cc(OC)c(OC)c(OC)c3)nn1)CC2`, the IC50 in [1] is 43.1 µM; in [2] (read-out: IC50), greater than 100 µM. Moreover, the Ratio IC50 in assay [3] came to 1.3.

Consider `COc1cc2c(cc1OC)CN(CCn1cc(CNc3ccccc3C(=O)Nc3ccccc3)nn1)CC2`, for which the IC50 in assay [1] was 34.3 µM; in assay [2] (read-out: IC50), greater than 100 µM. Further, in [3], the Ratio IC50 came to 2.1.

In the case of `COc1cc2c(cc1OC)CN(CCc1ccc(NC(=O)c3cc(OC)c(OC)cc3NC(=O)c3cnc4ccccc4c3)cc1)CC2`, the Ratio IC50 amounted to 49.4 in assay [3]; 17 in [13]; 10.3 in assay [14]; 6.2 in assay [15]; 3.6 in assay [16]; 32.1 in [17].

Turning to `COc1cccc2c1C(=O)c1c(O)c3c(c(O)c1C2=O)C[C@@](O)(C(=O)CO)C[C@@H]3O[C@H]1C[C@H](N)[C@H](O)[C@H](C)O1` [DOXORUBICIN HYDROCHLORIDE], the IC50 in assay [1] turned out to be 0.97 µM; in assay [2] (read-out: IC50), 65.6 µM.

Take `COc1cc2c(cc1OC)CN(CCn1cc(CNc3ccccc3C(=O)Nc3ccc4c(c3)OCO4)nn1)CC2`: the IC50 was 41.5 µM in assay [1] and greater than 100 µM in [2] (read-out: IC50). Moreover, in [3], the Ratio IC50 was determined as 4.6.

`COc1ccc(CCN(C)CCCC(C#N)(c2ccc(OC)c(OC)c2)C(C)C)cc1OC` (stereo unspecified) [VERAPAMIL]: the results for the IC50 in assay [1] and in assay [2] were 82.2 µM and 67.2 µM, respectively. The Ratio IC50 in assay [3] is 3.3; in [17] it was 4.8. Further, the inhibition entry in [19] and in assay [21] was “Active” throughout.

`COc1ccc(NC(=O)c2ccccc2NCc2cn(CCN3CCc4cc(OC)c(OC)cc4C3)nn2)cc1OC`: the figures for the IC50 in [1] and in assay [2] (read-out: IC50) were 60.5 µM and greater than 100 µM, respectively. In assay [3], the Ratio IC50 was determined as 1.3.
